pIC50: −log10 of the molar value. Counter-ions that a name gives are not always drawn.
What follows are compounds tested against human KAT II (hKAT II) enzyme (Homo sapiens, UniProt Q8N5Z0) (assay: KAT II Inhibition Spectra Assay). Details: Table 6; hKAT II, decrease in OD370, 37° C., 15-20 h; read-out: KATII IC50.
Format: biochemical
Protocol: Formation of kynurenic acid (KYNA) is indirectly assessed by a decrease in light absorbance at 370 nm (OD370) as the L-kynurenine (KYN) substrate is converted by the human KAT II (hKAT II) enzyme into KYNA. An inhibitor would therefore inhibit the decrease in OD370.
The protocol was performed by placing the following reagents into a Costar 384 well black plate (30 μL total assay volume/well): • 10 μL of 3× concentrated compound; • 10 μL of 3× concentrated substrate mix (BGG (Sigma G-5009); 3 mM L-Kynurenine in 150 mM Tris Acetate (Sigma K3750); 3 mM α-ketoglutaric acid in 150 mM Tris Acetate (Sigma K2010); and 210 μM pyridoxal 5-phosphate (PLP) in 150 mM Tris Acetate (Sigma 9255)); and • 10 μL of 3× concentrated enzyme (15 nM enzyme in 150 mM Tris Acetate with 0.3% bovine serum).
Plates were sealed and incubated at 37° C. for 15-20 h before reading OD370 on a SpectraMax Plus plate reader. IC50s were generated by comparing the efficacy of compounds across a concentration range to inhibit a reduction in the OD370 value relative to assay wells with DMSO added in place of concentrated compound.

Sequence of human KAT II (hKAT II) enzyme (Q8N5Z0 30-425): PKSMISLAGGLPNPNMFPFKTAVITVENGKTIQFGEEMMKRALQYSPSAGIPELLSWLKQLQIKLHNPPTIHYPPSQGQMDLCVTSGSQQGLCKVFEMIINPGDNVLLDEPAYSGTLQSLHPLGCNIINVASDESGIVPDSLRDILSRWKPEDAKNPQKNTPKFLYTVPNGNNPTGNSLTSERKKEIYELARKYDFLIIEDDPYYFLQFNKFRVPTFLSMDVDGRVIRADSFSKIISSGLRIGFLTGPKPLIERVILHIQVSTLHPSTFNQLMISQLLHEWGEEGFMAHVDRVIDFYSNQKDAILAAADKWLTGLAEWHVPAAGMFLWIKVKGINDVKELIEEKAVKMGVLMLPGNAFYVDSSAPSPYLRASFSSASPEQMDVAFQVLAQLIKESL

Row | pIC50 | SMILES
1 | 7.25 | NC1Cc2cc(Oc3ccccc3F)ccc2N(O)C1=O (stereo not shown) [Example 107]
2 | 7.15 | NC1Cc2cc(Oc3ccc(F)cc3)ccc2N(O)C1=O (stereo not shown) [Example 108]
3 | 7.34 | N[C@H]1Cc2c(ccc(Oc3ccccc3)c2F)N(O)C1=O [Example 111]
4 | 7.43 | N[C@H]1Cc2c(ccc(F)c2F)N(O)C1=O [Example 114]
5 | 5.90 | COc1cccc2c1N(O)C(=O)C(N)C2 (stereo not shown) [Example 118]
6 | 7.45 | N[C@H]1Cc2cc(Oc3ccc(Cl)cc3)cnc2N(O)C1=O [Example 124]
7 | 7.76 | COc1cccc(Cc2cc3c(cc2OC)N(O)C(=O)[C@@H](N)C3)c1 [Example 125]
8 | 7.51 | COc1cc2c(cc1Cc1cccc(C#N)c1)C[C@H](N)C(=O)N2O [Example 126]
9 | 7.55 | N[C@H]1Cc2cc(Cc3ccccc3)cnc2N(O)C1=O [Example 127]
10 | 7.59 | Cc1nc2c(cc1Cc1ccccc1)C[C@H](N)C(=O)N2O [Example 128]
11 | 7.31 | N#Cc1cccc(Oc2cnc3c(c2)C[C@H](N)C(=O)N3O)c1 [Example 129]
12 | 6.92 | N[C@H]1Cc2cc(-c3ccccc3OC(F)(F)F)ccc2N(O)C1=O [Example 132, (3S)-3-amino-1-hydroxy-6-[2-(trifluoromethoxy)phenyl]-3,4-dihydroquinolin-2(1H)-one, trifluoroacetate salt]
13 | 7.12 | N[C@H]1Cc2cc(-c3c(F)cccc3F)ccc2N(O)C1=O [Example 148, (3S)-3-amino-6-(2,6-difluorophenyl)-1-hydroxy-3,4-dihydroquinolin-2(1H)-one, trifluoroacetate salt]
14 | 7.06 | N[C@H]1Cc2cc(Oc3ccc(F)c(Cl)c3)ccc2N(O)C1=O [Example 156, (3S)-3-amino-6-(3-chloro-4-fluorophenoxy)-1-hydroxy-3,4-dihydroquinolin-2(1H)-one, trifluoroacetate salt]
15 | 7.16 | N[C@H]1Cc2cc(Oc3cc(F)ccc3F)ccc2N(O)C1=O [Example 157, (3S)-3-amino-6-(2,5-difluorophenoxy)-1-hydroxy-3,4-dihydroquinolin-2(1H)-one, trifluoroacetate salt]
16 | 6.90 | N[C@H]1Cc2cc(Oc3ccc(Cl)c(C(F)(F)F)c3)ccc2N(O)C1=O [Example 158, (3S)-3-amino-6-[4-chloro-3-(trifluoromethyl)phenoxy]-1-hydroxy-3,4-dihydroquinolin-2(1H)-one, trifluoroacetate salt]

Second part, the compound before the results:

Row | SMILES | pIC50
17 | N[C@H]1Cc2c(F)ccc(Cl)c2N(O)C1=O [Example 109] | 6.54
18 | CCc1cccc2c1N(O)C(=O)[C@@H](N)C2 [Example 110] | 6.01
19 | N[C@H]1Cc2cc(C3CCOCC3)ccc2N(O)C1=O [Example 112] | 7.31
20 | N[C@H]1Cc2cc(Cl)cc(Cl)c2N(O)C1=O [Example 113] | 6.52
21 | N[C@H]1Cc2cc(Cl)c(Cl)cc2N(O)C1=O [Example 115] | 7.28
22 | N[C@H]1Cc2c(ccc(C3CC3)c2F)N(O)C1=O [Example 116] | 7.28
23 | N[C@H]1Cc2c(ccc(Cl)c2F)N(O)C1=O [Example 117] | 7.27
24 | N[C@H]1Cc2cccc(C(F)F)c2N(O)C1=O [Example 119] | 7.39
25 | N[C@H]1Cc2cc(F)cc(F)c2N(O)C1=O [Example 120] | 7.21
26 | N[C@H]1Cc2ccncc2N(O)C1=O [Example 130] | 5.80
27 | N[C@H]1Cc2cc(-c3cccc(OC(F)(F)F)c3)ccc2N(O)C1=O [Example 131, (3S)-3-amino-1-hydroxy-6-[3-(trifluoromethoxy)phenyl]-3,4-dihydroquinolin-2(1H)-one, trifluoroacetate salt] | 6.61
28 | N[C@H]1Cc2cc(-c3cc(F)ccc3F)ccc2N(O)C1=O [Example 133, (3S)-3-amino-6-(2,5-difluorophenyl)-1-hydroxy-3,4-dihydroquinolin-2(1H)-one, trifluoroacetate salt] | 7.06
29 | COc1ccc(-c2ccc3c(c2)C[C@H](N)C(=O)N3O)cc1C [Example 134, (3S)-3-amino-1-hydroxy-6-(4-methoxy-3-methylphenyl)-3,4-dihydroquinolin-2(1H)-one, trifluoroacetate salt] | 6.70
30 | Cc1ccccc1-c1ccc2c(c1)C[C@H](N)C(=O)N2O [Example 135, (3S)-3-amino-1-hydroxy-6-(2-methylphenyl)-3,4-dihydroquinolin-2(1H)-one, trifluoroacetate salt] | 6.94
31 | N[C@H]1Cc2cc(-c3ccccc3F)ccc2N(O)C1=O [Example 136, (3S)-3-amino-6-(2-fluorophenyl)-1-hydroxy-3,4-dihydroquinolin-2(1H)-one, trifluoroacetate salt] | 6.89
32 | COc1ccc(-c2ccc3c(c2)C[C@H](N)C(=O)N3O)c(C)c1 [Example 137, (3S)-3-amino-1-hydroxy-6-(4-methoxy-2-methylphenyl)-3,4-dihydroquinolin-2(1H)-one, trifluoroacetate salt] | 7.16
33 | N[C@H]1Cc2cc(-c3ccc4c(c3)CCO4)ccc2N(O)C1=O [Example 138, (3S)-3-amino-6-(2,3-dihydro-1-benzofuran-5-yl)-1-hydroxy-3,4-dihydroquinolin-2(1H)-one, trifluoroacetate salt] | 6.81

Row | SMILES | pIC50
34 | N[C@H]1Cc2cc(-c3cccc(F)c3)ccc2N(O)C1=O [Example 139, (3S)-3-amino-6-(3-fluorophenyl)-1-hydroxy-3,4-dihydroquinolin-2(1H)-one, trifluoroacetate salt] | 7.18
35 | N[C@H]1Cc2cc(-c3ccc(Cl)cc3)ccc2N(O)C1=O [Example 140, (3S)-3-amino-6-(4-chlorophenyl)-1-hydroxy-3,4-dihydroquinolin-2(1H)-one, trifluoroacetate salt] | 6.60
36 | CCOc1ccccc1-c1ccc2c(c1)C[C@H](N)C(=O)N2O [Example 141, (3S)-3-amino-6-(2-ethoxyphenyl)-1-hydroxy-3,4-dihydroquinolin-2(1H)-one, trifluoroacetate salt] | 6.55
37 | N[C@H]1Cc2cc(-c3ccc(F)cc3)ccc2N(O)C1=O [Example 142, (3S)-3-amino-6-(4-fluorophenyl)-1-hydroxy-3,4-dihydroquinolin-2(1H)-one, trifluoroacetate salt] | 6.99
38 | N[C@H]1Cc2cc(-c3cccc(Cl)c3)ccc2N(O)C1=O [Example 143, (3S)-3-amino-6-(3-chlorophenyl)-1-hydroxy-3,4-dihydroquinolin-2(1H)-one, trifluoroacetate salt] | 7.02
39 | N[C@H]1Cc2cc(-c3cccc(C(F)(F)F)c3)ccc2N(O)C1=O [Example 144, (3S)-3-amino-1-hydroxy-6-[3-(trifluoromethyl)phenyl]-3,4-dihydroquinolin-2(1H)-one, trifluoroacetate salt] | 6.84
40 | N[C@H]1Cc2cc(-c3cccc(Cl)c3Cl)ccc2N(O)C1=O [Example 145, (3S)-3-amino-6-(2,3-dichlorophenyl)-1-hydroxy-3,4-dihydroquinolin-2(1H)-one, trifluoroacetate salt] | 6.75
41 | Cc1cccc(-c2ccc3c(c2)C[C@H](N)C(=O)N3O)c1 [Example 146, (3S)-3-amino-1-hydroxy-6-(3-methylphenyl)-3,4-dihydroquinolin-2(1H)-one, trifluoroacetate salt] | 7.10
42 | N[C@H]1Cc2cc(-c3ccc(F)cc3F)ccc2N(O)C1=O [Example 147, (3S)-3-amino-6-(2,4-difluorophenyl)-1-hydroxy-3,4-dihydroquinolin-2(1H)-one, trifluoroacetate salt] | 7.12
43 | CCc1ccccc1-c1ccc2c(c1)C[C@H](N)C(=O)N2O [Example 149, (3S)-3-amino-6-(2-ethylphenyl)-1-hydroxy-3,4-dihydroquinolin-2(1H)-one, trifluoroacetate salt] | 6.93
44 | N[C@H]1Cc2cc(-c3ccccc3)ccc2N(O)C1=O [Example 150, (3S)-3-amino-1-hydroxy-6-phenyl-3,4-dihydroquinolin-2(1H)-one, trifluoroacetate salt] | 7.01
45 | COc1ncccc1-c1ccc2c(c1)C[C@H](N)C(=O)N2O [Example 151, (3S)-3-amino-1-hydroxy-6-(2-methoxypyridin-3-yl)-3,4-dihydroquinolin-2(1H)-one, trifluoroacetate salt] | 7.20
46 | N[C@H]1Cc2cc(-c3cc(F)ccc3Cl)ccc2N(O)C1=O [Example 152, (3S)-3-amino-6-(2-chloro-5-fluorophenyl)-1-hydroxy-3,4-dihydroquinolin-2(1H)-one, trifluoroacetate salt] | 7.03
47 | COc1ccc(-c2ccc3c(c2)C[C@H](N)C(=O)N3O)cc1 [Example 153, (3S)-3-amino-1-hydroxy-6-(4-methoxyphenyl)-3,4-dihydroquinolin-2(1H)-one, trifluoroacetate salt] | 6.79
48 | N[C@H]1Cc2cc(-c3ccccc3Cl)ccc2N(O)C1=O [Example 154, (3S)-3-amino-6-(2-chlorophenyl)-1-hydroxy-3,4-dihydroquinolin-2(1H)-one, trifluoroacetate salt] | 7.02
49 | COc1cccc(-c2ccc3c(c2)C[C@H](N)C(=O)N3O)c1 [Example 155, (3S)-3-amino-1-hydroxy-6-(3-methoxyphenyl)-3,4-dihydroquinolin-2(1H)-one, trifluoroacetate salt] | 6.87

Reference: US8183238B2, “Bicyclic and tricyclic compounds as KAT II inhibitors” (priority 2009, dated 2012)
